In US5661129A, “Organic nitrates containing a disulfide group as cardiovascular agents” (Schwarz Pharma AG, priority 1993, dated 1997):

Assays:
[1] = tested on: isolated rat aortic rings; experiment: Vasorelaxation in vitro on isolated rat aortic rings precontracted with phenylephrine; type: cell-based; settings: rat aortic rings precontracted with 2×10^-7 mol/l phenylephrine; cumulative addition; n = 3-6; read-out: EC50 (concentration which leads to a 50% relaxation of the precontracted vascular ring)
Excerpt: The vasorelaxant effect of the compounds of the general formula I was investigated in vitro on isolated rat aortic rings. For this purpose, rats were anaesthetized and then the thoracic aorta was removed, freed of adipose and adventitious tissue and divided into annular segments about 5 mm wide. The aortic rings were transferred into temperature-controlled baths containing Tyrodes' solution through which 5% CO2 /95% O2 was passed, and were subjected to a preload of 2 g. While continuously recording the change in force, the vascular rings were precontracted after equilibration with 2×10^-7 mol/l phenylephrine for 90 minutes. After a stable contraction level was reached, the nitrato compounds were cumulatively added to the vessel bath liquid, the next higher concentration in each case being added only after a stable relaxation level had been reached. The concentration of the particular compound which leads to a 50% relaxation of the precontracted vascular ring (EC50) was found from the resulting concentration-effect plots. Table 1 contains the EC50 values found in this way for selected exemplary compounds.

[2] = tested on: arterial, central venous and pulmonary artery blood pressure in a conscious dog; experiment: Effects on blood pressure in a conscious dog; type: in vivo; design: unit not given here; settings: intravenous, 13.4 μg/kg disulphide compounds
Method: The SAP was measured using a tip catheter transducer inserted into the aorta via the femoral artery, and the CVP and the PAP were measured using a Swan-Ganz catheter which was inserted via the left jugular vein and whose catheter tips were advanced as far as the pulmonary artery and the right atrium respectively and through whose lumens the particular pressure was passed to Statham® pressure transducers. To quantify the lowering of blood pressure elicited by the compound according to the invention, the areas under the curves (AUC) of the recorded changes in blood pressure were determined. Table 2 contains the AUC values for the relevant lowering of blood pressure after intravenous administration of 13.4 μg/kg of the disulphide compounds according to the invention and after intravenous administration of 26.8 μg/kg isosorbide 5-mononitrate (5-ISMN).

[3] = continuous intake of high doses; classical organic nitrates and EP compounds; cited from earlier work

Row | Structure (SMILES) | EC50 [1] | AUC (CVP), lowering of central venous blood pressure [2] | AUC (PAP), lowering of pulmonary artery blood pressure [2] | AUC (SAP), lowering of systolic arterial blood pressure [2] | nitrate tolerance (attenuation of the effect) [3]
1 | CC(C)(CO[N+](=O)[O-])C(=O)N[C@@H](CSSC[C@H](NC(=O)C(C)(C)CO[N+](=O)[O-])C(N)=O)C(N)=O [N,N'-di(3-nitratopivaloyl)-L-cystinediamide] | 30 µM | 46.9 | 28.1 | 55.3 | 
2 | O=[N+]([O-])OCC(CO[N+](=O)[O-])O[N+](=O)[O-] [glycerol trinitrate] |  |  |  |  | distinct attenuation of the effect, nitrate tolerance
3 | CNC(=O)[C@H](CSSC[C@H](NC(=O)C(C)(C)CO[N+](=O)[O-])C(=O)NC)NC(=O)C(C)(C)CO[N+](=O)[O-] [N,N'-di(3-nitratopivaloyl)-L-cystine-di(N-methylamide)] | 24 µM | 33.7 | 3.5 | 41.9 | 
4 | CC(C)(CO[N+](=O)[O-])C(=O)N[C@@H](CSSC[C@H](NC(=O)C(C)(C)CO[N+](=O)[O-])C(=O)O)C(=O)O [N,N'-di(3-nitratopivaloyl)-L-cystine] | 120 µM | 67.9 | 2.7 | 17.3 | 
5 | O=[N+]([O-])O[C@@H]1CO[C@H]2[C@@H]1OC[C@@H]2O [Example 5-ISMN, isosorbide 5-mononitrate, reference compound] |  |  |  |  | distinct attenuation of the effect, nitrate tolerance
6 | CCOC(=O)[C@H](CSSC[C@H](NC(=O)C(C)(C)CO[N+](=O)[O-])C(=O)OCC)NC(=O)C(C)(C)CO[N+](=O)[O-] [N,N'-di(3-nitratopivaloyl)-L-cystine diethyl ester] | 1.5 µM | 85.7 | 12.0 | 94.1 | 
7 | CC(C)(C)OC(=O)[C@H](CSSC[C@H](NC(=O)C(C)(C)CO[N+](=O)[O-])C(=O)OC(C)(C)C)NC(=O)C(C)(C)CO[N+](=O)[O-] [N,N'-di(3-nitratopivaloyl)-L-cystine di-tert.-butyl ester] | 59 µM |  |  |  | 
8 | CC(C)(CO[N+](=O)[O-])C(=O)N[C@@H](CSSC[C@H](NC(=O)C(C)(C)CO[N+](=O)[O-])C(=O)N1CCCCC1)C(=O)N1CCCCC1 [N,N'-di(3-nitratopivaloyl)-L-cystinedipiperidide] | 100 µM | 36.9 | 18.5 | 10.4 | 
